Assays:
[1] = target: Tyrosine-protein kinase ABL1 (Homo sapiens, UniProt P00519); assay: Inhibition of wild type ABL (unknown origin) incubated for 5 mins by HTRF assay
[2] = target: Epidermal growth factor receptor (Homo sapiens, UniProt P00533, T790M); format: protein assay
[3] = target: RAC-beta serine/threonine-protein kinase (Homo sapiens, UniProt P31751); assay: Inhibition of wild type AKT2 (unknown origin) incubated for 5 mins by HTRF assay
Cytochrome P450 3A4 = Cytochrome P450 3A4 (Homo sapiens, UniProt P08684); assay: Inhibition of CYP3A4 in human hepatic microsomes after 20 mins by LC/MS/MS method; format: ADME, Liver
[4] = target: ALK tyrosine kinase receptor (Homo sapiens, UniProt Q9UM73); assay: Inhibition of wild type ALK (unknown origin) incubated for 5 mins by HTRF assay
[5] = target: Platelet-derived growth factor receptor beta (Homo sapiens, UniProt P09619); assay: Inhibition of wild type PDGFRbeta (unknown origin) incubated for 5 mins by HTRF assay
hERG (KCNH2) [6] = target: T1, hERG (KCNH2) (Homo sapiens, UniProt Q12809); assay: Inhibition of human ERG assessed as reduction in channel currents at 10 uM
Cytochrome P450 2D6 = Cytochrome P450 2D6 (Homo sapiens, UniProt P10635); assay: Inhibition of CYP2D6 in human hepatic microsomes after 20 mins by LC/MS/MS method; format: ADME, Liver
Mus musculus = assay: Apparent volume of distribution in BALB/c mouse at 10 mg/kg, po after 24 hrs by LC/MS/MS method; format: ADME, organism-based; design: dose 10 mg/kg, route oral; details: in vivo
[7] = target: Hepatocyte growth factor receptor (Homo sapiens, UniProt P08581); assay: Inhibition of wild type c-Met (unknown origin) incubated for 5 mins by HTRF assay
[8] = Apparent clearance in BALB/c mouse at 10 mg/kg, po after 24 hrs by LC/MS/MS method; format: ADME, organism-based; design: dose 10 mg/kg, route oral; details: BALB/c, in vivo, read-out: CL(app)
[9] = target: Proto-oncogene tyrosine-protein kinase Src (Homo sapiens, UniProt P12931); assay: Inhibition of wild type SRC (unknown origin) incubated for 5 mins by HTRF assay
[10] = Intrinsic clearance in rat liver microsomes assessed per mg protein at 1 uM in presence of NADPH after 0.5 to 30 mins by LC/MS/MS method; format: ADME; details: read-out: CLH
[11] = Intrinsic clearance in mouse liver microsomes assessed per mg protein at 1 uM in presence of NADPH after 0.5 to 30 mins by LC/MS/MS method; format: ADME; details: read-out: CLH
[12] = target: Epidermal growth factor receptor (Homo sapiens, UniProt P00533);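 further: inhibition of wild-type EGFR read out by HTRF, with a 5 min incubation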
Description: Inhibition of wild type EGFR (unknown origin) incubated for 5 mins by HTRF assay

[13] = Intrinsic clearance in dog liver microsomes assessed per mg protein at 1 uM in presence of NADPH after 0.5 to 30 mins by LC/MS/MS method; format: ADME, Canis lupus familiaris; details: read-out: CLH
Cytochrome P450 2C19 = Cytochrome P450 2C19 (Homo sapiens, UniProt P33261); assay: Inhibition of CYP2C19 in human hepatic microsomes after 20 mins by LC/MS/MS method; format: ADME, Liver
[14] = target: Platelet-derived growth factor receptor alpha (Homo sapiens, UniProt P16234); assay: Inhibition of wild type PDGFRalpha (unknown origin) incubated for 5 mins by HTRF assay
[15] = Cmax in BALB/c mouse at 10 mg/kg, po after 24 hrs by LC/MS/MS method; format: ADME, organism-based; design: dose 10 mg/kg, route oral; details: in vivo
[16] = Oral bioavailability in BALB/c mouse at 10 mg/kg after 24 hrs by LC/MS/MS method; format: ADME, organism-based; details: in vivo
[17] = Intrinsic clearance in monkey liver microsomes assessed per mg protein at 1 uM in presence of NADPH after 0.5 to 30 mins by LC/MS/MS method; format: ADME, Macaca mulatta; details: rhesus monkey, read-out: CLH
[18] = target: RAC-alpha serine/threonine-protein kinase (Homo sapiens, UniProt P31749); assay: Inhibition of wild type AKT1 (unknown origin) incubated for 5 mins by HTRF assay
Cytochrome P450 2C9 = Cytochrome P450 2C9 (Homo sapiens, UniProt P11712); assay: Inhibition of CYP2C9 in human hepatic microsomes after 20 mins by LC/MS/MS method; format: ADME, Liver
hERG (KCNH2) [19] = target: T1, hERG (KCNH2); assay: Inhibition of human ERG assessed as reduction in channel currents at 1 uM
[20] = target: Receptor-type tyrosine-protein kinase FLT3 (Homo sapiens, UniProt P36888); assay: Inhibition of wild type FLT3 (unknown origin) incubated for 5 mins by HTRF assay
[21] = target: Tyrosine-protein kinase SYK (Homo sapiens, UniProt P43405); assay: Inhibition of wild type SYK (unknown origin) incubated for 5 mins by HTRF assay
Cytochrome P450 1A2 = target: T2, Cytochrome P450 1A2 (Homo sapiens, UniProt P05177); assay: Inhibition of CYP1A2 in human hepatic microsomes after 20 mins by LC/MS/MS method; format: ADME, Liver
T2 sequence (P05177 whole entry): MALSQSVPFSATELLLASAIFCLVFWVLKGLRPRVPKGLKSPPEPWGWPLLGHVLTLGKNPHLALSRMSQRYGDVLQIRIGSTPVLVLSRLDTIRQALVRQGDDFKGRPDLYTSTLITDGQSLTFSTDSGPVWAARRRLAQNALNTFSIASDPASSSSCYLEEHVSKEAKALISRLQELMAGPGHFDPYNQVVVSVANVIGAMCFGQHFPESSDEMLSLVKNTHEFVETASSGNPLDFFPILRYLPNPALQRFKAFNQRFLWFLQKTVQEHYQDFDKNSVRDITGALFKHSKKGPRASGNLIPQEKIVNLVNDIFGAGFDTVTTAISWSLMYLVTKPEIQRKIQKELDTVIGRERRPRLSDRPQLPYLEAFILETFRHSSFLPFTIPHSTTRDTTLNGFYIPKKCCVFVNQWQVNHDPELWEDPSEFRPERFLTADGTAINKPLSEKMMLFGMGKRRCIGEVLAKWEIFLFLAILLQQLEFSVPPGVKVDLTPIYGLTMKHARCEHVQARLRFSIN

[22] = target: Tyrosine-protein kinase JAK2 (Homo sapiens, UniProt O60674); assay: Inhibition of wild type JAK2 (unknown origin) incubated for 5 mins by HTRF assay
[23] = Intrinsic clearance in human liver microsomes assessed per mg protein at 1 uM in presence of NADPH after 0.5 to 30 mins by LC/MS/MS method; format: ADME; details: read-out: CLH
[24] = target: Fibroblast growth factor receptor 2 (Homo sapiens, UniProt P21802); assay: Inhibition of wild type FGFR2 (unknown origin) incubated for 5 mins by HTRF assay
[25] = AUC (0 to infinity) in BALB/c mouse at 10 mg/kg, po after 24 hrs by LC/MS/MS method; format: ADME, organism-based, Plasma; design: dose 10 mg/kg, route oral, time infinity; details: BALB/c, plasma

T1 sequence (Q12809 whole entry): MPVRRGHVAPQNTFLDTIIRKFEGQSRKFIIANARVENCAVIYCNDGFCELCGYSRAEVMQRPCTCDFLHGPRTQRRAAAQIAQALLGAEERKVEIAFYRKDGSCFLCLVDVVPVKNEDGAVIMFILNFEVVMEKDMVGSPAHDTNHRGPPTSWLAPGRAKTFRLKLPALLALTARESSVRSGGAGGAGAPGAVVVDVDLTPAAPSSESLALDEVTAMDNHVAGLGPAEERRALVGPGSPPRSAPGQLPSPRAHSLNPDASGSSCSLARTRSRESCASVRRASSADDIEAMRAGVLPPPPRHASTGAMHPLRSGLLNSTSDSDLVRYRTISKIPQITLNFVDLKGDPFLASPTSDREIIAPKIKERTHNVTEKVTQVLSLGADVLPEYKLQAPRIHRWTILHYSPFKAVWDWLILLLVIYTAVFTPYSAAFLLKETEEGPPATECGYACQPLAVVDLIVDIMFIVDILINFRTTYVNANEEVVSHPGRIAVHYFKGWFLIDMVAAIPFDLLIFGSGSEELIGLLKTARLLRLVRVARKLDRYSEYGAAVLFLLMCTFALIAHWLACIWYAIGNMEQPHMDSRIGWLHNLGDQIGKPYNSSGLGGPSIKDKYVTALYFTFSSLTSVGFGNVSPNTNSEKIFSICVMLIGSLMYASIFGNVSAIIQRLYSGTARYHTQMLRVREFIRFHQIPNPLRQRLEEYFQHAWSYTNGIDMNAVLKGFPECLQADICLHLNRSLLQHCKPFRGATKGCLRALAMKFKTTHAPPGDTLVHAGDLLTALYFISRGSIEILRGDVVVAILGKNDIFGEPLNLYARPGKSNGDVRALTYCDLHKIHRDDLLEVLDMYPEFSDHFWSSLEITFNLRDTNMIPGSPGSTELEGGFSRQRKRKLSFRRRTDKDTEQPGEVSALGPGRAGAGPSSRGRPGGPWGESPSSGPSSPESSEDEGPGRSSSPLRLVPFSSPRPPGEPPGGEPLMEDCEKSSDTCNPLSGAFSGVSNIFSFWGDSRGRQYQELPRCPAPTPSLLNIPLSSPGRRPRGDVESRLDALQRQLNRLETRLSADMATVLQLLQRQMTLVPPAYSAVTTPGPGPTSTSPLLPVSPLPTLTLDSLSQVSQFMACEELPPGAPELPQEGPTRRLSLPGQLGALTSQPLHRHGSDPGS
Chain of RAC-beta serine/threonine-protein kinase (P31751 whole entry): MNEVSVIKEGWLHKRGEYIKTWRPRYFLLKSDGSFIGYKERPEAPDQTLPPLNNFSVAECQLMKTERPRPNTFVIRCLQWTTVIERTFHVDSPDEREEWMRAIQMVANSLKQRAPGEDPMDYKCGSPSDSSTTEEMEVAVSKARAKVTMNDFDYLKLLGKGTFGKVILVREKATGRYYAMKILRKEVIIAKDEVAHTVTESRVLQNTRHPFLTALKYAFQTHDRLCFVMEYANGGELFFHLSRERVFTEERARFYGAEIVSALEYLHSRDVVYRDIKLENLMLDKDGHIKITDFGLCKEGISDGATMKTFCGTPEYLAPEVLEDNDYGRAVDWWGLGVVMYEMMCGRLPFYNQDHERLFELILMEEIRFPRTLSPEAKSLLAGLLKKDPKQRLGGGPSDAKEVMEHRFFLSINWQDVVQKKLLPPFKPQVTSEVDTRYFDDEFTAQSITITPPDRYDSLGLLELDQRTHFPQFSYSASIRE
Chain of Epidermal growth factor receptor (Homo sapiens, UniProt P00533) (P00533 whole entry): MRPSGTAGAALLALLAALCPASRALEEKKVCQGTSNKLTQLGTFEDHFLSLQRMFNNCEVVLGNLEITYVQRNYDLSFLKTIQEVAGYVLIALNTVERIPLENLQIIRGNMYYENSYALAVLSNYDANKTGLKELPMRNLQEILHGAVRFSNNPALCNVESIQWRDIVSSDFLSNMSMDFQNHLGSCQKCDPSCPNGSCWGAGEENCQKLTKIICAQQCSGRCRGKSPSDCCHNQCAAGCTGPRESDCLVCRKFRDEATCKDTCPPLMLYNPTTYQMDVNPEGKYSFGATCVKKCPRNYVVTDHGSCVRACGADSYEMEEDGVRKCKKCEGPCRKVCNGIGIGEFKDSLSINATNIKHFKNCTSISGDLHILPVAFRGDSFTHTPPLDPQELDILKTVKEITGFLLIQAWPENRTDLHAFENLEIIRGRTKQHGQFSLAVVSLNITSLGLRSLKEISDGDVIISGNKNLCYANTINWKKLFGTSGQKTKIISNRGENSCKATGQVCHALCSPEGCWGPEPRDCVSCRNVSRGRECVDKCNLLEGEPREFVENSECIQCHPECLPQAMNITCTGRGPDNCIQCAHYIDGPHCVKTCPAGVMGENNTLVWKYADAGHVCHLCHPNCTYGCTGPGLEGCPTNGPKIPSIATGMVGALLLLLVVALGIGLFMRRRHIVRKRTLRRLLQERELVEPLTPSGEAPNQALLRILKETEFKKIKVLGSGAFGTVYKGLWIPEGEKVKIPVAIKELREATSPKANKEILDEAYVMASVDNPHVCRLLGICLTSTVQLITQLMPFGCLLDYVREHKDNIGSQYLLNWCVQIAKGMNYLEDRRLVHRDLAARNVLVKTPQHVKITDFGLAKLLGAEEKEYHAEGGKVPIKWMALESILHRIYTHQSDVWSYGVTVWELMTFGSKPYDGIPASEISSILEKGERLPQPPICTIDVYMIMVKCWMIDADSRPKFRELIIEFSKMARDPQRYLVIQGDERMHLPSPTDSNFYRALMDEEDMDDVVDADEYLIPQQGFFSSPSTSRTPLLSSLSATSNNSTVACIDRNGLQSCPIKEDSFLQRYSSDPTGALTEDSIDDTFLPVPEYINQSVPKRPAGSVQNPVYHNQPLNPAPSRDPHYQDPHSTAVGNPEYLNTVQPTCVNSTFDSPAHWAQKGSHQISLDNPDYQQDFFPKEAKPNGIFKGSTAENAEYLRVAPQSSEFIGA
Chain of Receptor-type tyrosine-protein kinase FLT3 (P36888 whole entry): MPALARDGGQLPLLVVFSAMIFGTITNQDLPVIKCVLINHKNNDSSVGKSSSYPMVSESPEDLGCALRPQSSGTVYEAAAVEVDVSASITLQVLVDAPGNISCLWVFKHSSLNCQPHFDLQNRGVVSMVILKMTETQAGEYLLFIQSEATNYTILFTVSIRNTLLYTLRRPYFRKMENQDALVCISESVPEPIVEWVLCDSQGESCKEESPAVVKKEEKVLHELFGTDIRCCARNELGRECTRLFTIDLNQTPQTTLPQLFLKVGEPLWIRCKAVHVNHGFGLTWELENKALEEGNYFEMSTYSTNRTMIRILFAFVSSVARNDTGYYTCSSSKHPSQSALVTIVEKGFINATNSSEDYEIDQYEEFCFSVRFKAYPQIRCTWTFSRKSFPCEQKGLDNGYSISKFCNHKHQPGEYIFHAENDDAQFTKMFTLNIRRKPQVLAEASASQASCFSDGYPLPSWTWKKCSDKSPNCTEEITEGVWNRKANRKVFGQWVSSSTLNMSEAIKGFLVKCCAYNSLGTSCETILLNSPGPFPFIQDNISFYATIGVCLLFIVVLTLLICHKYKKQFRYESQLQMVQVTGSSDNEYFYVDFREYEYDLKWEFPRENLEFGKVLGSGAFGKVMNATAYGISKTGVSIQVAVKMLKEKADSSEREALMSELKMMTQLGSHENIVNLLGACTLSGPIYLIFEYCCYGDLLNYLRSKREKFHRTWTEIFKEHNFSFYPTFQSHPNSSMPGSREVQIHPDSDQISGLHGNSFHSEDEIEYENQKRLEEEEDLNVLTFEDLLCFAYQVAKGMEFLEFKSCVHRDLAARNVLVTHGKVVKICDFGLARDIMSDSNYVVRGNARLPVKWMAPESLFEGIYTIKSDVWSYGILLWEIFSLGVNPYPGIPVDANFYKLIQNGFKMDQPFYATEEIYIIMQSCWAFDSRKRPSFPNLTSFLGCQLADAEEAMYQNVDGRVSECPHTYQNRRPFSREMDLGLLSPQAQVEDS
Chain of Cytochrome P450 3A4 (P08684 whole entry): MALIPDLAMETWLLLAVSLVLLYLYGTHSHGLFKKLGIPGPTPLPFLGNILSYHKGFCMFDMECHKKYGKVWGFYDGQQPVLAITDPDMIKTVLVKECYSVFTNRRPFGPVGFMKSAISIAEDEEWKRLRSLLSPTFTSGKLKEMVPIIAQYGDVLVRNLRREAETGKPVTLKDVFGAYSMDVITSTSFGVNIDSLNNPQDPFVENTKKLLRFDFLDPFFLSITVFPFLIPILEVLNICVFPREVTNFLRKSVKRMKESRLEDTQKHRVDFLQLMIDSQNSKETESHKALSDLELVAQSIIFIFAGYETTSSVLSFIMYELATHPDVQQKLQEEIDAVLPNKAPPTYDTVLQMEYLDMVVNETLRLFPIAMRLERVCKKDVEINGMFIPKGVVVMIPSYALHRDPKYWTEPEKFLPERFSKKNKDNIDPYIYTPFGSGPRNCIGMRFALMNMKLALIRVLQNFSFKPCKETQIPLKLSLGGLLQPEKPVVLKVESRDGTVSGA
Chain of Proto-oncogene tyrosine-protein kinase Src (P12931 2-536 limits assumed): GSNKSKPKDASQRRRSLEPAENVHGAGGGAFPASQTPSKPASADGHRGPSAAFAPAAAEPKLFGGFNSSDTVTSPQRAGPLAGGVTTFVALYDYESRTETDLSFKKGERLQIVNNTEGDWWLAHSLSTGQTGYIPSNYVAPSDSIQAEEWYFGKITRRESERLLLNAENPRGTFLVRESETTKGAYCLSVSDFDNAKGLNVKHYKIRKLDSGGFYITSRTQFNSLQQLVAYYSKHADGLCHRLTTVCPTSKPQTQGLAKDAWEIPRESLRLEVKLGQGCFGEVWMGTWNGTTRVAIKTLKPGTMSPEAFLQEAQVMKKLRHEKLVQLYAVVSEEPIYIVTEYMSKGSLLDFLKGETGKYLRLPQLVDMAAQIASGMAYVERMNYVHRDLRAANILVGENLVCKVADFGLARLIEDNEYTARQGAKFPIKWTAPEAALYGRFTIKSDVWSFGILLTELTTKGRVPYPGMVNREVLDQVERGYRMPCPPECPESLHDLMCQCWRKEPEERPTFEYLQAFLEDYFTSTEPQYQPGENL

## COc1cc2ncnc(Nc3ccc(F)c(Cl)c3)c2cc1NC(=O)/C(F)=C/CN(C)C
[1]
  IC50: 2.26 µM
[2]
  IC50: 0.00667 µM
[3]
  IC50: > 10 µM
Cytochrome P450 3A4
  IC50: > 10 µM
[4]
  IC50: > 10 µM
[5]
  IC50: 2.1 µM
hERG (KCNH2) [6]
  inhibition at 10 µM: 18.4%
Cytochrome P450 2D6
  IC50: > 10 µM
Mus musculus
  Vz: 14 L/kg
[7]
  IC50: > 10 µM
[8]
  CL/F: 50 mL/min/kg
[9]
  IC50: 1.73 µM
[10]
  microsomal CLint at 1 µM: 18 µL/min/mg
[11]
  microsomal CLint at 1 µM: 45 µL/min/mg
[12]
  IC50: 0.0002 µM
[13]
  microsomal CLint at 1 µM: 194 µL/min/mg
Cytochrome P450 2C19
  IC50: > 10 µM
[14]
  IC50: 3.6 µM
[15]
  Cmax: 790 nM
[16]
  bioavailability: 98.5%
[17]
  microsomal CLint at 1 µM: 128 µL/min/mg
[18]
  IC50: > 10 µM
Cytochrome P450 2C9
  IC50: > 10 µM
hERG (KCNH2) [19]
  inhibition at 1 µM: 2.55%
[20]
  IC50: 6.81 µM
[21]
  IC50: > 10 µM
Cytochrome P450 1A2
  IC50: > 10 µM
[22]
  IC50: > 10 µM
[23]
  microsomal CLint at 1 µM: 14 µL/min/mg
[24]
  IC50: > 10 µM
[25]
  AUC(0-inf): 7.67 µM·h

Source: ChEMBL document CHEMBL3351667, “A chemical tuned strategy to develop novel irreversible EGFR-TK inhibitors with improved safety and pharmacokinetic profiles” (J Med Chem, 2014)
